# System: myostatin gene expression in C2C12 cells
# Test: Inhibition of myostatin expression in C2C12 cells (qPCR)
# Type: cell-based
# Details: Mus musculus, percentage myostatin gene expression in cells in contact with the compounds related to control cells, C2C12, 6 h
# Description: After several experiments in which the C2C12 cells differentiated into myotubes were incubated in the presence of IGF-1 or 20E for 2 h 30 or 6 h, two screening tests were developed. Thus, the phosphorylation of the S6 protein kinase and the expression of the myostatin gene were studied in order to determine their modulation by a growth hormone or an ecdysone and to characterize these modulations from a statistical point of view. The C2C12 myoblast cells (ATCC CRL-1772) are seeded into 24-well plates at a density of 30 000 cells per well and cultured in a DMEM medium containing glucose in a proportion of 4.5 g/l and supplemented with fetal calf serum (10%) and with antibiotics (penicillin and streptomycin). Forty-eight hours later, the myoblasts are induced to differentiate by partial serum depletion (2% instead of 10%) for 5 days. The cells are then placed in a medium which is glucose-depleted (DMEM containing 1 g/l of glucose) and serum-free in the presence of the test molecules or of the references (100 ng/ml IGF-1 or 10 μ[…]) for 6 h. At the end of the experiment, the messenger RNAs (mRNAs) are extracted using the conventional methodology based on phenol and chloroform. Briefly, the cells are lysed in a Trizol solution (Sigma T9424) containing a strong acid and phenol. The mRNAs are separated from the proteins by addition of chloroform and then centrifugation. They are then precipitated from isopropanol and then suspended at a concentration of 1 μg/μl in an […] ultrapure water. 1 μg of mRNA is then converted by reverse transcription into complementary DNA by the AMV enzyme in the presence of a primer and of a mixture of nucleotides according to the protocol given by the supplier (Applied Biosystems 4368814). […] The qPCRs are carried out on a 7900HT Fast real-Time PCR detection system (Applied Biosystems). The programming conditions are standard and consist of 1 cycle at 95° C. for 15 min, followed by 40 cycles at 95° C. for 15 s and at 60° C. for 1 min and the program ends with a melt curve step between 60° C. and 95° C. […] Fluorescent probes bind to the double-stranded DNA and are fluorescent only once bound to the DNA. A fluorescence threshold is established by the machine's program. When the amount of DNA allows the fluorescent probe to exceed this threshold, a PCR cycle number, called “Ct” for “Cycle Threshold”, is obtained. It is this value which forms the basis of the calculations to quantify the DNA relatively. A ratio R is established between the amount of starting DNA of a sample and that of a control, which has not undergone treatment (i.e. […] R=2^-ΔΔCt).
row,SMILES,mrna remaining at 10 µM [%]
1,"CC([C@H]1CC[C@@]2(O)C3=CC(=O)[C@@H]4C[C@@H](O)[C@@H](O)C[C@]4(C)C3CC[C@]12C)N(CC(F)F)C(=O)OC(C)(C)C (stereo partly drawn) [Compound 71, Tert-butyl N-(2,2-difluoroethyl)-N-[1-[(2S,3R,5R,10R,13R,14S,17S)-2,3,14-trihydroxy-10,13-dimethyl-6-oxo-2,3,4,5,9,11,12,15,16,17-decahydro-1H-cyclopenta[a]phenanthren-17-yl]ethyl]carbamate]",< 70
2,"CC([C@H]1CC[C@@]2(O)C3=CC(=O)[C@@H]4C[C@@H](O)[C@@H](O)C[C@]4(C)C3CC[C@]12C)N(Cc1cccnc1)C(=O)c1ccco1 (stereo partly drawn) [Compound 73, N-(3-pyridylmethyl)-N-[1-[(2S,3R,5R,10R,13R,14S,17S)-2,3,14-trihydroxy-10,13-dimethyl-6-oxo-2,3,4,5,9,11,12,15,16,17-decahydro-1H-cyclopenta(a)phenanthren-17-yl]ethyl]furan-2-carboxamide]",71 to 85
3,"C/C(=N/OCCOc1ccccc1)[C@H]1CC=C2C3=CC(=O)[C@@H]4C[C@@H](O)[C@@H](O)C[C@]4(C)C3CC[C@@]21C (stereo partly drawn) [Compound 33, (2S,3R,5R,10R,13R,17S)-2,3-dihydroxy-10,13-dimethyl-17-(C-methyl-N-(2-phenoxyethoxy)carbonimidoyl)-1,2,3,4,5,9,11,12,16,17-decahydrocyclopenta[a]phenanthren-6-one]",< 70
4,"C/C(=N/OCCOc1ccccc1)[C@H]1CC[C@@]2(O)C3=CC(=O)[C@@H]4C[C@@H](O)[C@@H](O)C[C@]4(C)C3CC[C@]12C (stereo partly drawn) [Compound 27, (2S,3R,5R,10R,13R,14S,17S)-2,3,14-trihydroxy-10,13-dimethyl-17-(C-methyl-N-(2-phenoxyethoxy)carbonimidoyl)-2,3,4,5,9,11,12,15,16,17-decahydro-1H-cyclopenta[a]phenanthren-6-one]",< 70
5,"CC([C@H]1CC[C@@]2(O)C3=CC(=O)[C@@H]4C[C@@H](O)[C@@H](O)C[C@]4(C)C3CC[C@]12C)N(CC(F)F)C(=O)C1CC1 (stereo partly drawn) [Compound 68, N-(2,2-difluoroethyl)-N-[1-[(2S,3R,5R,10R,13R,14S,17S)-2,3,14-trihydroxy-10,13-dimethyl-6-oxo-2,3,4,5,9,11,12,15,16,17-decahydro-1H-cyclopenta[a]phenanthren-17-yl]ethyl]cyclopropanecarboxamide]",< 70
6,"CC([C@H]1CC[C@@]2(O)C3=CC(=O)[C@@H]4C[C@@H](O)[C@@H](O)C[C@]4(C)C3CC[C@]12C)N(C(=O)c1ccc(C#N)cc1)C1CC1 (stereo partly drawn) [Compound 56, 4-cyano-N-cyclopropyl-N-[1-[(2S,3R,5R,10R,13R,14S,17S)-2,3,14-trihydroxy-10,13-dimethyl-6-oxo-2,3,4,5,9,11,12,15,16,17-decahydro-1H-cyclopenta[a]phenanthren-17-yl]ethyl]benzamide]",71 to 85
7,"CCON=C(C)[C@H]1CCC2C3=CC(=O)[C@@H]4C[C@@H](O)[C@@H](O)C[C@]4(C)C3CC[C@@]21C (stereo partly drawn) [Compound 5, (2S,3R,5R,10R,13S,17S)-17-(N-ethoxy-C-methylcarbonimidoyl)-2,3-dihydroxy-10,13-dimethyl-1,2,3,4,5,9,11,12,14,15,16,17-dodecahydrocyclopenta[a]phenanthren-6-one]",< 70
8,"COCCN(C(=O)c1cccs1)C(C)[C@H]1CC[C@@]2(O)C3=CC(=O)[C@@H]4C[C@@H](O)[C@@H](O)C[C@]4(C)C3CC[C@]12C (stereo partly drawn) [Compound 53, N-(2-methoxyethyl)-N-[1-[(2S,3R,5R,10R,13R,14S,17S)-2,3,14-trihydroxy-10,13-dimethyl-6-oxo-2,3,4,5,9,11,12,15,16,17-decahydro-1H-cyclopenta[a]phenanthren-17-yl]ethyl]thiophene-2-carboxamide]",< 70
9,"CO/N=C1\C=C2C(CC[C@]3(C)[C@@H](/C(CN4CCOCC4)=N\OC)CC[C@@]23O)[C@@]2(C)C[C@H](O)[C@H](O)C[C@@H]12 (stereo partly drawn) [Compound 101, (2S,3R,5R,6E,10R,13R,14S,17S)-6-methoxyimino-17-(N-methoxy-C-(morpholinomethyl)carbonimidoyl)-10,13-dimethyl-2,3,4,5,9,11,12,15,16,17-decahydro-1H-cyclopenta[a]phenanthrene-2,3,14-triol]",< 70
10,"C[C@]12C[C@H](O)[C@H](O)C[C@H]1C(=O)C=C1C2CC[C@]2(C)[C@@H](C(O)CN3CCC(CCO)CC3)CC[C@@]12O (stereo partly drawn) [Compound 99, (2S,3R,5R,10R,13R,14S,17S)-2,3,14-trihydroxy-17-[1-hydroxy-2-[4-(2-hydroxyethyl)-1-piperidyl]ethyl]-10,13-dimethyl-2,3,4,5,9,11,12,15,16,17-decahydro-1H-cyclopenta[a]phenanthren-6-one]",< 70
11,"COCCN(C(=O)C(C)C)C(C)[C@H]1CC[C@@]2(O)C3=CC(=O)[C@@H]4C[C@@H](O)[C@@H](O)C[C@]4(C)C3CC[C@]12C (stereo partly drawn) [Compound 75, N-(2-methoxyethyl)-2-methyl-N-[1-[(2S,3R,5R,10R,13R,14S,17S)-2,3,14-trihydroxy-10,13-dimethyl-6-oxo-2,3,4,5,9,11,12,15,16,17-decahydro-1H-cyclopenta[a]phenanthren-17-yl]ethyl]propanamide]",< 70
12,"COC(CN(C(=O)c1ccco1)C(C)[C@H]1CC[C@@]2(O)C3=CC(=O)[C@@H]4C[C@@H](O)[C@@H](O)C[C@]4(C)C3CC[C@]12C)OC (stereo partly drawn) [Compound 60, N-(2,2-dimethoxyethyl)-N-[1-[(2S,3R,5R,10R,13R,14S,17S)-2,3,14-trihydroxy-10,13-dimethyl-6-oxo-2,3,4,5,9,11,12,15,16,17-decahydro-1H-cyclopenta[a]phenanthren-17-yl]ethyl]furan-2-carboxamide]",71 to 85
13,"COC(CN(C)CC(=O)[C@H]1CC[C@@]2(O)C3=CC(=O)[C@@H]4C[C@@H](O)[C@@H](O)C[C@]4(C)C3CC[C@]12C)OC (stereo partly drawn) [Compound 85, (2S,3R,5R,10R,13R,14S,17S)-17-[2-(2,2-dimethoxyethyl(methyl)amino)acetyl]-2,3,14-trihydroxy-10,13-dimethyl-2,3,4,5,9,11,12,15,16,17-decahydro-1H-cyclopenta[a]phenanthren-6-one]",71 to 85
14,"COC(CN(C(=O)c1cccs1)C(C)[C@H]1CC[C@@]2(O)C3=CC(=O)[C@@H]4C[C@@H](O)[C@@H](O)C[C@]4(C)C3CC[C@]12C)OC (stereo partly drawn) [Compound 64, N-(2,2-dimethoxyethyl)-N-[1-[(2S,3R,5R,10R,13R,14S,17S)-2,3,14-trihydroxy-10,13-dimethyl-6-oxo-2,3,4,5,9,11,12,15,16,17-decahydro-1H-cyclopenta[a]phenanthren-17-yl]ethyl]thiophene-2-carboxamide]",< 70
15,"COCC(=O)N(C1CC1)C(C)[C@H]1CC[C@@]2(O)C3=CC(=O)[C@@H]4C[C@@H](O)[C@@H](O)C[C@]4(C)C3CC[C@]12C (stereo partly drawn) [Compound 54, N-cyclopropyl-2-methoxy-N-[1-[(2S,3R,5R,10R,13R,14S,17S)-2,3,14-trihydroxy-10,13-dimethyl-6-oxo-2,3,4,5,9,11,12,15,16,17-decahydro-1H-cyclopenta[a]phenanthren-17-yl]ethyl]acetacetamide]",< 70

# From patent US10316056B2, “Chemical compounds and use thereof for improving muscular quality” (BIOPHYTIS, priority 2014, dated 2019)
